# According to article PMC10819888, “Benzimidazole-Based Derivatives as Apoptotic Antiproliferative Agents: Design, Synthesis, Docking, and Mechanistic Studies” (Molecules, 2024):
# Molecular target: EGFR (Homo sapiens, UniProt P00533)
# Test: EGFR inhibitory assay
# EGFR, sequence (P00533 669-1210): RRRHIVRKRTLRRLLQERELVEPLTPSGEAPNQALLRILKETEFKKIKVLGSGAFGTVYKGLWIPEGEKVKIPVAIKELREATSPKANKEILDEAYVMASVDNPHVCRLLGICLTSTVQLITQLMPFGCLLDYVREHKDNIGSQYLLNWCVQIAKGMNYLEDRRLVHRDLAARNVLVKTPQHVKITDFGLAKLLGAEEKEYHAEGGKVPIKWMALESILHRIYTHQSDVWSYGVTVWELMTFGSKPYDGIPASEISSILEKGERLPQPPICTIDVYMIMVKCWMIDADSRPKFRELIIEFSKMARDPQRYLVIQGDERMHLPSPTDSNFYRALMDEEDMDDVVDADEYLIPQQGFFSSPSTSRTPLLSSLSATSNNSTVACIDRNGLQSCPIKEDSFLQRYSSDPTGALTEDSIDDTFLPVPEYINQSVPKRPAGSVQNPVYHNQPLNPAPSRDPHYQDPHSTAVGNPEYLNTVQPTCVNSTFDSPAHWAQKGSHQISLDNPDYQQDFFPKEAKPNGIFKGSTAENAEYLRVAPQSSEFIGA
row,SMILES,IC50 [nM]
1,"COc1cc(/C=N/NC(=O)c2ccc3[nH]c(-c4ccc(Cl)cc4)nc3c2)cc(OC)c1OC [Compound 4h, N′-(3,4,5-Trimethoxybenzylidene)-2-(4-chlorophenyl)-1H-benzimidazole-5 carbohydrazide]",560 ± 50
2,"O=C(NN=Cc1ccc(F)cc1)c1ccc2[nH]c(-c3ccc(Cl)cc3)nc2c1 [Compound 4d, N′-(4-Fluorobenzylidene)-2-(4-chlorophenyl)-1H-benzimidazole-5-carbohydrazide]",680 ± 50
